Legend:
[1] = Stepwise formation constants for Fe-ligand system by titration in 0.1M NaCl; format: physicochemical; settings: for pFe^3+: pH 7.4, ligand 10 μM, metal 1 μM, HySS; for K111 / K122 / K133: stepwise constant, Fe-ligand system, Example 53
Procedure: Stepwise formation constants for M^n+-ligand systems were determined by spectrophotometric titration when metal complexes have a strong absorbance in the visible region due to ligand to metal charge transfer.
In a typical experiment, the sample solution was prepared according to the following procedure: compound Apo7041 (12.96 mg) was weighed into a 50 mL volumetric flask, and about 40 mL of 0.1 M NaCl was added. The mixture was sonicated for 10 min to give a clear colorless solution. The iron stock solution (atomic absorption standard, Aldrich, 565 μL, 10.00 μmol) was pipetted into the solution, followed by the addition of 1.000 N NaOH (170 μL). More of the 0.1 M NaCl was added to volume and the resulting solution was vortexed to mix. The molar ratio between the total iron and the total Apo7041 was 1/5.1. The mixture was vortexed at rt for 1 h. 20 mL of the sample solution was transferred into a 35 mL beaker by using a 10 mL digital pipet. The sample solution was circulated between the beaker and the flow cell using a sipper system. The sample solution was titrated against hydrochloric acid solutions at 22° C. until the pH reached 0.021. After each addition of acid, the solution was allowed to equilibrate until a constant pH reading was reached. The pH and the UV-Vis spectrum were recorded for each measurement. For each measurement enough acid was added so that there was a slight decrease in the absorbance of the spectrum. Altogether, 68 measurements were taken to finish the experiment.
The resulting data set was then analyzed using pHAB. The formation constants for Fe-Apo7041 system were optimized using the model shown in the first column of the table.
pM^n+ is defined as −log [M(H2O)m]^n+ at physiological conditions, i.e.: pH 7.4, a ligand concentration of 10 μM, and a metal concentration of 1 μM. To calculate pM^n+ for a MLn system, βn and pKa values are needed (βn are the formation constants for M^n++n L^−⇄MLn; pKa are the equilibrium constants for L^−+n H^+⇄LHn^(n-1)+). The pM^n+ is calculated using the HySS software (HYSS© 2000 Protonic Software).
The log β values of the Fe-Apo7323 system were determined by spectrophotometric titration using an Agilent 8453 UV-visible spectroscopy system (see Example 29B). The sample solution was a mixture of Fe^3+ (2×10^−4 M) and Apo7323 (1×10^−3 M) in 0.1 N NaCl aqueous solvent. The titration data in a pH range of 3.408 to 0.655 were fitted with pHAB using the model shown in FIG. 1 to obtain Log β111, Log β122, and Log β133.
The sample solution was a mixture of Fe^3+ (6×10^−3M) and Apo7323 (1.8×10^−2M) in 0.1 N NaCl aqueous solvent. The titration started at pH 1.72 and ended at pH 11.5 using 3 M NaOH as the titrant. The titration data in a pH range of 3 to 10 were fitted with Hyperquad2000 software using the model:
[drawing 175] where 133 is the species (FeL3H3)^3+, 132 is the species is (FeL3H2)^2+, 131 is the species (FeL3H)^+, and 130 is the species FeL3.
(§1) After obtaining three pKa values for Apo7323 (ligand), three pKa values for the Fe-Apo7323 complex, and the log β values for Fe-Apo7323 as shown in the following table, a speciation plot (FIG. 14) was constructed using the HySS software program. pFe was also calculated using the HySS software.

[2] = Oral cassette dosing PK/BBB studies; format: in vivo, male Sprague-Dawley rats; settings: for BBB penetration: cassette dosing BBB studies in rats, in words; for AUC brain* / Kp / AUC: oral cassette dosing, male Sprague-Dawley rats; for AUC brain* / AUC: AUC normalized to 1 mg/kg dose; for Kp / AUC: rat; for Kp: brain and plasma, read-out: AUC brain/AUC plasma; for AUC: plasma
Procedure: In-vivo pharmacokinetic (PK) and blood brain barrier (BBB) studies were conducted in male Sprague-Dawley rats using cassette dosing via oral administration. […] No. 15, pp. 652-658.

[3] = Fe speciation plot (HySS); format: physicochemical; settings: for % FeL3H2 (species 132) at pH 7.4 / % FeL3H3 (species 133) at pH 7.4 / % FeL3H (species 131) at pH 7.4 / % FeL2H2 at pH 7.4 / % FeL3 (species 130, neutral/uncharged ferric chelate) at pH 7.4: Fe:ligand 1:10, [Fe]=1×10^−6 M, [L]=1×10^−5 M
Source text: Example 54 illustrates the speciation distribution of several amino fluorinated derivatives of 3-hydroxypyridin-4-(1H)-ones of the invention. The speciation plot (distribution of ferric chelate species) of two compounds of formula I (Apo7067 and Apo7323) at pH 7.4 is provided in the following table.
as §1

[4] = system: human neuroblastoma MC-65 cells; assay: cells; settings: for EC100 / minimal effective concentration: Homo sapiens, MC65, 48 h; for EC100: read-out: EC100 (maximum effective concentration); for minimal effective concentration: read-out: TH (threshold protective concentration); for CC2 (cytotoxic concentration): MC-65, cultured without tetracycline; for CC2 (cytotoxic concentration) / CC1 (cytotoxic concentration): viability below 80%; for CC1 (cytotoxic concentration): MC-65, presence of TET
In short: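 MC-65 cells (conditional Aβ fusion-protein expression, TET-repressed) were washed free of TET and FBS, then exposed to compound ~48 h in serum-free medium without or with 1 μg/mL TET.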

[5] = 0.1 M NaCl, spectrophotometric titration
[6] = 0.1 M NaCl, spectrophotometric titration, fitted

SMILES	Log β111 (Fe3+) [1, 5]	Log β122 (Fe3+) [1, 5]	Log β133 (Fe3+) [1, 5]	AUC brain* [2]	Kp [2]	AUC [2]	EC100 [4]	minimal effective concentration [4]	CC2 (cytotoxic concentration) [4]	CC1 (cytotoxic concentration) [4]	Log β130 (Fe3+) ([1]; Example 53: Log β131 − pKa1(C))	Log β131 (Fe3+) ([1]; Example 53: Log β132 − pKa2(C))	Log β132 (Fe3+) ([1]; Example 53: Log β133 − pKa3(C))	K111 [1]	K122 [1]	K133 [1]	% FeL3H2 (species 132) at pH 7.4 [3]	% FeL3H3 (species 133) at pH 7.4 [3]	% FeL3H (species 131) at pH 7.4 [3]	% FeL2H2 at pH 7.4 [3]	also measured
CN(C)C(c1c(O)c(=O)ccn1C)C(F)(F)F (centres unmarked) [Apo7041, 2-[1-(dimethylamino)-2,2,2-trifluoroethyl]-3-hydroxy-1-methylpyridin-4(1H)-one]	18.1	35.0	50.5	450 ng·h/mL	0.75	600 ng·h/mL	10 µM	0.1 µM	80 µM	10 µM	–	–	–	–	–	–	–	–	–	–	Log β130 (Fe3+) ([1]; 0.1 M NaCl, fitted): 38.8; Log β131 (Fe3+) [1, 6]: 44.5; Log β132 (Fe3+) [1, 6]: 48.3; pFe^3+ [1]: pFe^3+ = 23.4; BBB penetration [2]: less favorable than deferiprone in BBB penetration; pH from which the FeL3 chelate is stable ([3]; speciation plot FIG. 5): ≥ 5
CN(C)Cc1c(O)c(=O)ccn1CC(F)(F)F [Apo7067, 2-[(dimethylamino)methyl]-3-hydroxy-1-(2,2,2-trifluoroethyl)pyridin-4(1H)-one]	20.0	38.7	55.7	740 ng·h/mL	1.5	500 ng·h/mL	10 µM	0.1 µM	80 µM	80 µM	34.5	42.6	49.6	20.0	18.7	17.0	24.6%	1.2%	61.8%	–	BBB penetration [2]: readily penetrates the BBB
CNC(c1cn(C)c(C)c(O)c1=O)C(F)(F)F (centres unmarked) [Apo7056, 3-Hydroxy-1,2-dimethyl-5-[2,2,2-trifluoro-1-(methylamino)ethyl]pyridin-4(1H)-one]	18.7	35.9	51.5	770 ng·h/mL	0.56	1380 ng·h/mL	10 µM	0.1 µM	80 µM	80 µM	36.5	42.3	47.3	18.7	17.2	15.6	0.0%	0.0%	2.40%	0.0%	% FeL3 (species 130, neutral/uncharged ferric chelate) at pH 7.4 [3]: 97.5%
O=c1ccn(CC(F)(F)F)c(CN2CCOCC2)c1O [Apo7323, 3-hydroxy-2-(morpholinomethyl)-1-(2,2,2-trifluoroethyl)pyridin-4(1H)-one]	18.4	34.9	50.1	–	–	–	20 µM	1 µM	80 µM	80 µM	35.7	41.6	46.2	18.4	16.5	15.1	0.0%	0.0%	3.1%	0.0%	–
Cc1c(O)c(=O)ccn1C [Deferiprone, 3-hydroxy-1,2-dimethylpyridin-4(1H)-one, reference compound]	–	–	–	–	–	–	–	–	–	–	–	–	–	–	–	–	–	–	–	–	Log β130 (Fe3+) ([1]; 0.1 M NaCl, fitted, listed as deferiprone): 37.24; Log β130 (Fe3+) ([1]; 0.1 M NaCl, fitted, listed as drawing 103): Logβ130 = 37.24; Logβ110 (Fe3+) ([1]; 0.1M aqueous NaCl): Logβ110 = 14.85; Logβ120 (Fe3+) ([1]; 0.1M aqueous NaCl): Logβ120 = 27.25; pFe^3+ [1]: pFe^3+ = 20.2; % FeL3 (species 130, neutral/uncharged ferric chelate) at pH 7.4 [3]: ~100%
Cc1c(O)c(=O)c(C(N2CCOCC2)C(F)(F)F)cn1C (centres unmarked) [Apo7435, 3-hydroxy-1,2-dimethyl-5-(2,2,2-trifluoro-1-morpholinoethyl)pyridin-4(1H)-one]	15.9	30.4	44.8	–	–	–	10 µM	1 µM	40 µM	40 µM	35.6	39.6	42.7	15.9	14.5	14.4	0.0%	0.0%	0.00%	0.0%	% FeL3 (species 130, neutral/uncharged ferric chelate) at pH 7.4 [3]: 100%
